In general, IC50 refers to the midpoint of a concentration-inhibition curve.

The experiment concerns the target Protein farnesyltransferase (Rattus norvegicus, UniProt Q02293+Q04631). Put plainly: Inhibition of farnesyl transferase (FTase) of rat brain.
`CSCC[C@H](NC(=O)[C@@H](NC(=O)[C@H](C(C)C)N(C)C(=O)[C@H](S)NC(=O)[C@H](N)CCCCN)c1ccccc1)C(=O)O` came in with an IC50 of 1000 nM.
Under `CSCC[C@H](NC(=O)[C@@H]1Cc2ccccc2CN1C(=O)[C@H](C(C)C)N(C)C(=O)[C@H](S)NC(=O)[C@H](N)CCCCN)C(=O)O` stands 5 nM; under `CSCC[C@H](NC(=O)[C@H]1Cc2ccccc2CN1C(=O)[C@H]1CCCN1C(=O)[C@H](CS)NC(=O)[C@@H](N)CCCCN)C(=O)O`, 100000 nM; under `CSCC[C@H](NC(=O)[C@@H](NC(=O)[C@@H](NC(=O)[C@H](S)NC(=O)[C@H](N)CCCCN)C(C)(C)C)c1ccccc1)C(=O)O`, 1000 nM.
`CSCC[C@H](NC(=O)[C@@H]1Cc2ccccc2CN1C(=O)[C@@H](NC(=O)[C@H](S)NC(=O)[C@H](N)CCCCN)C(C)(C)C)C(=O)O` had a concentration for half-maximal inhibition (IC50) of 40 nM.
In turn, `CSCC[C@H](NC(=O)[C@H](Cc1ccccc1)NC(=O)[C@H](C(C)C)N(C)C(=O)[C@H](S)NC(=O)[C@H](N)CCCCN)C(=O)O` showed an IC50 of 1000 nM.
Under `CSCC[C@H](NC(=O)[C@H](Cc1ccccc1)NC(=O)[C@@H](NC(=O)[C@H](S)NC(=O)[C@H](N)CCCCN)C(C)C)C(=O)O` stands 1000 nM; under `CSCC[C@H](NC(=O)[C@@H]1Cc2ccccc2CN1C(=O)[C@@H](NC(=O)[C@H](S)NC(=O)C(N)CCCCN)C(C)C)C(=O)O` (single isomer, unassigned), 20 nM.
`CSCC[C@H](NC(=O)[C@@H]1Cc2ccccc2CN1C(=O)[C@@H]1CCCN1C(=O)[C@H](S)NC(=O)C(N)CCCCN)C(=O)O` (single isomer, unassigned) yielded an IC50 of 2000 nM. This IC50 is about 100-fold higher than that of the molecule before.
As for `CSCC[C@H](NC(=O)[C@@H]1Cc2ccccc2CN1C(=O)C(NC(=O)[C@H](S)NC(=O)C(N)CCCCN)C(C)C)C(=O)O` (single isomer, unassigned; form 1), 100000 nM corresponded to half-maximal inhibition (IC50).
Under `CSCC[C@H](NC(=O)[C@@H]1Cc2ccccc2CN1C(=O)C(NC(=O)[C@H](S)NC(=O)C(N)CCCCN)C(C)C)C(=O)O` (single isomer, unassigned; form 2) stands 15000 nM; under `CSCC[C@H](NC(=O)[C@@H]1Cc2ccccc2CN1C(=O)[C@H](NC(=O)[C@H](CS)NC(=O)[C@@H](N)CCCCN)C(C)C)C(=O)O` (stereo in doubt; form 1), 100000 nM.
With `CSCC[C@H](NC(=O)[C@@H]1Cc2ccccc2CN1C(=O)[C@H](NC(=O)[C@H](CS)NC(=O)[C@@H](N)CCCCN)C(C)C)C(=O)O` (stereo in doubt; form 2) the figure was 50000 nM.

The values are drawn from ChEMBL document CHEMBL1128789, “Constrained analogs of KCVFM with improved inhibitory properties against farnesyl transferase” (Bioorg Med Chem Lett, 1995).
